Test results published in ChEMBL document CHEMBL1201862, “PubChem BioAssay data set” (2004).
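48-hour exposure; five concentrations; linearly interpolated endpoints. GI50 marks 50% less growth.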 Calls of active or inactive are those of the source. No stated cut-off is given here; in the data, active = GI50 up to about 1.1 µM and inactive = higher.

Experiments:
Assay in all cases: NCI-60 cell line screen, 48 h
[1] = test system: OVCAR-5
[2] = test system: OVCAR-4
[3] = test system: ACHN
[4] = test system: A549
[5] = test system: HCC 2998
[6] = test system: SF-268
[7] = test system: CAKI-1
[8] = test system: K562
[9] = test system: SW-620
[10] = test system: CCRF-CEM
[11] = test system: DLD-1
[12] = test system: XF498
[13] = test system: LOX IMVI
[14] = test system: COLO 205
[15] = test system: A498
[16] = test system: KM12
[17] = test system: DMS-273
[18] = test system: SF-539
[19] = test system: SNB-19
[20] = test system: HT-29
[21] = test system: SR
[22] = test system: HOP-62
[23] = test system: U-251
[24] = test system: TK-10
[25] = test system: OVCAR-8
[26] = test system: M14
[27] = test system: NCI-H23
[28] = test system: Malme-3M
[29] = test system: MOLT-4
[30] = test system: SNB-78
[31] = test system: UACC-257
[32] = test system: HOP-92
[33] = test system: SK-MEL-2
[34] = test system: UO-31
[35] = test system: SN12C
[36] = test system: KM-20L2
[37] = test system: SK-MEL-28
[38] = test system: SK-MEL-5
[39] = test system: HCT-116
[40] = test system: NCI-H226
[41] = test system: M19-MEL
[42] = test system: LXFL 529
[43] = test system: NCI-H460
[44] = test system: UACC-62
[45] = test system: SF-295
[46] = test system: NCI-H522
[47] = test system: SK-OV-3
[48] = test system: EKVX
[49] = test system: SNB-75
[50] = test system: HCT-15
[51] = test system: OVCAR-3
[52] = test system: 786-0
[53] = test system: HL-60
[54] = test system: DMS-114
[55] = test system: IGROV-1
[56] = test system: RXF 393
[57] = test system: RPMI-8226

Oc1ncnc2c1sc(=S)n2-c1ccccc1
GI50 [1]: > 100 µM (inactive) | GI50 [2]: > 100 µM (inactive) | GI50 [3]: > 100 µM (inactive) | GI50 [4]: > 100 µM (inactive) | GI50 [5]: > 100 µM (inactive) | GI50 [6]: > 100 µM (inactive) | GI50 [7]: > 100 µM (inactive) | GI50 [8]: > 100 µM (inactive) | GI50 [9]: > 100 µM (inactive) | GI50 [10]: > 100 µM (inactive) | GI50 [11]: > 100 µM (inactive) | GI50 [12]: > 100 µM (inactive) | GI50 [13]: > 100 µM (inactive) | GI50 [14]: > 100 µM (inactive) | GI50 [15]: 94.8 µM (inactive) | GI50 [16]: > 100 µM (inactive) | GI50 [17]: > 100 µM (inactive) | GI50 [18]: > 100 µM (inactive) | GI50 [19]: > 100 µM (inactive) | GI50 [20]: > 100 µM (inactive) | GI50 [21]: > 100 µM (inactive) | GI50 [22]: > 100 µM (inactive) | GI50 [23]: > 100 µM (inactive) | GI50 [24]: > 100 µM (inactive) | GI50 [25]: > 100 µM (inactive) | GI50 [26]: > 100 µM (inactive) | GI50 [27]: > 100 µM (inactive) | GI50 [28]: > 100 µM (inactive) | GI50 [29]: > 100 µM (inactive) | GI50 [30]: > 100 µM (inactive) | GI50 [31]: > 100 µM (inactive) | GI50 [32]: 70.3 µM (inactive) | GI50 [33]: > 100 µM (inactive) | GI50 [34]: 74.6 µM (inactive) | GI50 [35]: > 100 µM (inactive) | GI50 [36]: > 100 µM (inactive) | GI50 [37]: > 100 µM (inactive) | GI50 [38]: > 100 µM (inactive) | GI50 [39]: > 100 µM (inactive) | GI50 [40]: > 100 µM (inactive) | GI50 [41]: > 100 µM (inactive) | GI50 [42]: > 100 µM (inactive) | GI50 [43]: > 100 µM (inactive) | GI50 [44]: > 100 µM (inactive) | GI50 [45]: > 100 µM (inactive) | GI50 [46]: > 100 µM (inactive) | GI50 [47]: > 100 µM (inactive) | GI50 [48]: > 100 µM (inactive) | GI50 [49]: > 100 µM (inactive) | GI50 [50]: > 100 µM | GI50 [51]: > 100 µM (inactive) | GI50 [52]: > 100 µM (inactive) | GI50 [53]: > 100 µM (inactive) | GI50 [54]: > 100 µM (inactive) | GI50 [55]: > 100 µM (inactive)

O=c1c2c(c1=O)-c1ccccc1CN2
GI50 [1]: > 100 µM (inactive) | GI50 [2]: > 100 µM (inactive) | GI50 [3]: > 100 µM (inactive) | GI50 [4]: > 100 µM (inactive) | GI50 [5]: > 100 µM (inactive) | GI50 [6]: > 100 µM (inactive) | GI50 [7]: > 100 µM (inactive) | GI50 [8]: > 100 µM (inactive) | GI50 [9]: > 100 µM (inactive) | GI50 [10]: > 100 µM (inactive) | GI50 [11]: > 100 µM (inactive) | GI50 [12]: 20.6 µM (inactive) | GI50 [13]: > 100 µM (inactive) | GI50 [14]: > 100 µM (inactive) | GI50 [15]: > 100 µM (inactive) | GI50 [56]: > 100 µM (inactive) | GI50 [16]: > 100 µM (inactive) | GI50 [17]: > 100 µM (inactive) | GI50 [18]: > 100 µM (inactive) | GI50 [19]: > 100 µM (inactive) | GI50 [20]: > 100 µM (inactive) | GI50 [22]: > 100 µM (inactive) | GI50 [23]: > 100 µM (inactive) | GI50 [24]: > 100 µM (inactive) | GI50 [25]: > 100 µM (inactive) | GI50 [26]: > 100 µM (inactive) | GI50 [27]: > 100 µM (inactive) | GI50 [28]: > 100 µM (inactive) | GI50 [29]: > 100 µM (inactive) | GI50 [30]: > 100 µM (inactive) | GI50 [31]: > 100 µM (inactive) | GI50 [32]: > 100 µM (inactive) | GI50 [33]: > 100 µM (inactive) | GI50 [34]: > 100 µM (inactive) | GI50 [35]: > 100 µM (inactive) | GI50 [36]: > 100 µM (inactive) | GI50 [37]: > 100 µM (inactive) | GI50 [57]: > 100 µM (inactive) | GI50 [38]: > 100 µM (inactive) | GI50 [39]: > 100 µM (inactive) | GI50 [40]: > 100 µM (inactive) | GI50 [41]: > 100 µM (inactive) | GI50 [42]: > 100 µM (inactive) | GI50 [43]: > 100 µM (inactive) | GI50 [44]: > 100 µM (inactive) | GI50 [46]: > 100 µM (inactive) | GI50 [47]: > 100 µM (inactive) | GI50 [48]: > 100 µM (inactive) | GI50 [49]: > 100 µM (inactive) | GI50 [50]: > 100 µM | GI50 [51]: > 100 µM (inactive) | GI50 [52]: > 100 µM (inactive) | GI50 [53]: > 100 µM (inactive) | GI50 [54]: > 100 µM (inactive) | GI50 [55]: > 100 µM (inactive)

COC(=O)[C@H](C)[C@H]1CC[C@@](C)([C@H]2CC3C(C)(C)[C@H]4CCC(C)=C[C@H]4C[C@@]3(C)O2)OO1 (some centres not stated)
GI50 [1]: 13.4 µM (inactive) | GI50 [2]: 11.9 µM (inactive) | GI50 [3]: 10.4 µM (inactive) | GI50 [4]: 8.24 µM (inactive) | GI50 [5]: 6.68 µM (inactive) | GI50 [6]: 8.77 µM (inactive) | GI50 [7]: 5.13 µM (inactive) | GI50 [8]: 6.21 µM (inactive) | GI50 [9]: 8.83 µM (inactive) | GI50 [10]: 4.2 µM (inactive) | GI50 [11]: 12 µM (inactive) | GI50 [12]: 10 µM (inactive) | GI50 [13]: 1.6 µM (inactive) | GI50 [14]: 9.66 µM (inactive) | GI50 [15]: 8.71 µM (inactive) | GI50 [56]: > 10 µM (inactive) | GI50 [16]: 11.7 µM (inactive) | GI50 [17]: 12.6 µM (inactive) | GI50 [18]: 15 µM (inactive) | GI50 [19]: 14.8 µM (inactive) | GI50 [20]: 13.5 µM (inactive) | GI50 [21]: 9.12 µM (inactive) | GI50 [22]: 19.3 µM (inactive) | GI50 [23]: 13 µM (inactive) | GI50 [24]: 15.3 µM (inactive) | GI50 [25]: 10.7 µM (inactive) | GI50 [26]: 12.6 µM (inactive) | GI50 [27]: 7.6 µM (inactive) | GI50 [28]: 14.1 µM (inactive) | GI50 [29]: 7.13 µM (inactive) | GI50 [30]: 10.8 µM (inactive) | GI50 [31]: 12.1 µM (inactive) | GI50 [32]: 2.86 µM (inactive) | GI50 [33]: 15.4 µM (inactive) | GI50 [34]: 6.52 µM (inactive) | GI50 [35]: 11.1 µM (inactive) | GI50 [36]: 13.4 µM (inactive) | GI50 [37]: 14.6 µM (inactive) | GI50 [57]: 2.92 µM (inactive) | GI50 [38]: 4.72 µM (inactive) | GI50 [39]: 10.5 µM (inactive) | GI50 [40]: 14.7 µM (inactive) | GI50 [41]: 13.2 µM (inactive) | GI50 [42]: 2.03 µM (inactive) | GI50 [43]: 2.05 µM (inactive) | GI50 [44]: 13.6 µM (inactive) | GI50 [45]: 14.7 µM (inactive) | GI50 [46]: 1.66 µM (inactive) | GI50 [47]: 30.5 µM (inactive) | GI50 [48]: 13.7 µM (inactive) | GI50 [49]: 6.14 µM (inactive) | GI50 [50]: 10.5 µM | GI50 [51]: 13.2 µM (inactive) | GI50 [52]: 3.33 µM (inactive) | GI50 [53]: 2.05 µM (inactive) | GI50 [54]: 3.58 µM (inactive) | GI50 [55]: 5.69 µM (inactive)
